Consider eleven molecules from PubChem BioAssay (NCI).

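Protocol summary: plate cells (96-well), add compound at 5 concentrations, incubate 48 h, interpolate endpoints linearly. The concentration for 50% growth inhibition is given as GI50. The concentration for full growth arrest is given as TGI.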

Some test systems named below: HT29 colon; CAKI-1 renal; MALME-3M melanoma; T-47D breast; ACHN renal; COLO 205 colon; SF-268 CNS; KM12 colon; NCI-H522 lung; BT-549 breast.
What all share (test): NCI tumour cell line growth inhibition, 48 h

Regarding `CC1(C)N=C(N)N=C(N)N1c1ccc(CCCCc2ccc(S(=O)(=O)F)cc2)c(Cl)c1`, the GI50 is 0.0566 µM in the experiment with HT29 colon; 0.79 µM with CAKI-1 renal; 12 µM in the experiment on MALME-3M melanoma; 2.05 µM in the experiment on T-47D breast; 0.789 µM in the experiment on ACHN renal; 0.34 µM in the experiment with COLO 205 colon. The GI50 was 0.225 µM with SF-268 CNS, 0.454 µM in the experiment with KM12 colon, 0.419 µM in the experiment on NCI-H522 lung and 9.61 µM in the experiment on BT-549 breast. In addition, the TGI was 15.3 µM in the experiment on HT29 colon; above 100 µM in the experiment on CAKI-1 renal; 35.9 µM in the experiment with MALME-3M melanoma; 15.2 µM in the experiment with T-47D breast; above 100 µM with ACHN renal; 18.7 µM in the experiment on COLO 205 colon. The TGI in the experiment with SF-268 CNS turned out to be 19.5 µM; in the experiment with KM12 colon, 15.2 µM; with NCI-H522 lung it was 16.7 µM; in the experiment on BT-549 breast it was 22.5 µM.
Turning to `Cc1nc2ccccc2c(/C=C/c2ccc(Br)cc2)c1C(=O)/C=C/c1ccccc1`, the GI50 in the experiment with HT29 colon was 1.48 µM; with CAKI-1 renal it was 1.26 µM; in the experiment on MALME-3M melanoma, 1.7 µM; in the experiment with T-47D breast it was 1.46 µM; in the experiment with ACHN renal it was 1.64 µM; in the experiment with COLO 205 colon it was 1.51 µM. Moreover, the GI50 in the experiment on SF-268 CNS was 2.14 µM; in the experiment on KM12 colon it was 1.95 µM; with NCI-H522 lung, 1.42 µM; in the experiment with BT-549 breast it was 1.86 µM. The TGI in the experiment with HT29 colon stood at 6.58 µM; in the experiment with CAKI-1 renal it was 2.62 µM; with MALME-3M melanoma it was 3.12 µM; in the experiment with T-47D breast, 3.63 µM; in the experiment with ACHN renal, 3.02 µM; with COLO 205 colon, 3.47 µM. In addition, the TGI with SF-268 CNS is 6.38 µM; with KM12 colon, 4.37 µM; in the experiment with NCI-H522 lung, 3.04 µM; in the experiment with BT-549 breast, 4.49 µM.
Consider `Cc1ccc(C2=Nc3ccccc3SC(c3cccc([N+](=O)[O-])c3)C2)cc1` (centres undefined), for which the TGI in the experiment on HT29 colon is above 100 µM; in the experiment with CAKI-1 renal, above 100 µM; with MALME-3M melanoma, above 100 µM; in the experiment with T-47D breast, 72.5 µM; in the experiment with ACHN renal, above 100 µM; with COLO 205 colon it was above 100 µM. Further, the TGI with SF-268 CNS is above 100 µM; in the experiment on KM12 colon it was 36.8 µM; in the experiment on NCI-H522 lung it was 64.6 µM; with BT-549 breast, 83.6 µM.
Take `CN(CCCCCl)P(=O)(OCCS(=O)(=O)CC(NC(=O)CCC(N)C(=O)O)C(=O)NC(C(=O)O)c1ccccc1)OCC1OC(n2cc(F)c(=O)[nH]c2=O)CC1O` (centres undefined): the GI50 with HT29 colon is 2.68 µM; in the experiment on CAKI-1 renal it was 0.0177 µM; in the experiment with MALME-3M melanoma it was 8.98 µM; in the experiment on T-47D breast, 5.65 µM; in the experiment on ACHN renal, below 0.01 µM; in the experiment on COLO 205 colon it was 10.1 µM. Also, the GI50 is below 0.01 µM with SF-268 CNS, 13.3 µM with KM12 colon, 0.266 µM with NCI-H522 lung and 15.3 µM in the experiment with BT-549 breast. Moreover, the TGI in the experiment with HT29 colon was above 100 µM; in the experiment on CAKI-1 renal it was 25.6 µM; in the experiment with MALME-3M melanoma it was above 72.2 µM; in the experiment on T-47D breast it was above 100 µM; in the experiment with ACHN renal, 14 µM; in the experiment on COLO 205 colon, above 100 µM. Also, the TGI was above 78 µM with KM12 colon, above 57.4 µM with NCI-H522 lung and above 94.7 µM in the experiment with BT-549 breast.
Consider `C[C@@H]1O[C@@H](O[C@H]2CC[C@@]3(C)[C@H](CCC4[C@@H]3C(O)C[C@]3(C)[C@@H](c5ccc(=O)oc5)CC[C@]43O)C2)[C@H](O)[C@H](O)[C@H]1O` (some centres undefined), for which the GI50 in the experiment on HT29 colon is 0.00481 µM; in the experiment with CAKI-1 renal, 0.0042 µM; with MALME-3M melanoma, 0.00659 µM; with T-47D breast, below 0.00325 µM; with ACHN renal, below 0.00325 µM; in the experiment on COLO 205 colon, 0.00664 µM. Besides, the GI50 in the experiment on SF-268 CNS was below 0.00325 µM; in the experiment with KM12 colon, 0.00696 µM; with NCI-H522 lung, below 0.00325 µM; in the experiment with BT-549 breast, below 0.00325 µM. The TGI stood at 0.00975 µM in the experiment with HT29 colon; 0.0154 µM with CAKI-1 renal; 0.0166 µM in the experiment with MALME-3M melanoma; 0.0241 µM in the experiment with T-47D breast; 0.00803 µM with ACHN renal; 0.013 µM in the experiment on COLO 205 colon. Also, the TGI worked out at 0.00502 µM in the experiment on SF-268 CNS, 0.0157 µM in the experiment on KM12 colon, 0.0035 µM with NCI-H522 lung and 0.00448 µM in the experiment on BT-549 breast.
As to `N#CN1CC[C@H](C(=O)Nc2ncc(-c3ccncc3)s2)C1`, the GI50 is below 0.0197 µM in the experiment with HT29 colon; 0.101 µM in the experiment on CAKI-1 renal; below 0.0129 µM with MALME-3M melanoma; below 0.0177 µM with T-47D breast; 0.0348 µM in the experiment with ACHN renal; below 0.0141 µM in the experiment with COLO 205 colon. Moreover, the GI50 with SF-268 CNS is 0.127 µM; in the experiment with KM12 colon, below 0.0213 µM; in the experiment with NCI-H522 lung it was below 0.0149 µM; in the experiment with BT-549 breast it was below 0.0116 µM. The TGI was 1.96 µM with HT29 colon; above 83.2 µM in the experiment with CAKI-1 renal; 0.0694 µM in the experiment on MALME-3M melanoma; 1.24 µM in the experiment on T-47D breast; above 100 µM in the experiment on ACHN renal; 0.045 µM with COLO 205 colon. The TGI with SF-268 CNS was found to be 6.96 µM; with KM12 colon, 3.44 µM; in the experiment with NCI-H522 lung, 0.0499 µM; in the experiment on BT-549 breast, 0.188 µM.
On to `COc1ccc2c(c1OC)C(=O)OC2C1c2c(c([N+](=O)[O-])c3c(c2OC)OCO3)CCN1C` (centres undefined), for which the GI50 in the experiment with HT29 colon is 28.7 µM; in the experiment with CAKI-1 renal it was above 100 µM; in the experiment with MALME-3M melanoma it was above 100 µM; in the experiment with T-47D breast it was 54.1 µM; in the experiment with ACHN renal it was above 100 µM; with COLO 205 colon, 66.6 µM. Also, the GI50 in the experiment on SF-268 CNS, in the experiment on KM12 colon, in the experiment with NCI-H522 lung and in the experiment on BT-549 breast was above 100 µM throughout. Further, the TGI in the experiment on HT29 colon, in the experiment with CAKI-1 renal, in the experiment on MALME-3M melanoma, in the experiment on T-47D breast, in the experiment with ACHN renal and in the experiment with COLO 205 colon was above 100 µM in each case. Also, the TGI in the experiment on SF-268 CNS, with KM12 colon, in the experiment with NCI-H522 lung and in the experiment on BT-549 breast was above 100 µM in each case.
Consider `CC(=O)c1c(C(F)(F)F)n([O-])c2ccc(C)cc2[n+]1=O`, for which the GI50 is 4.96 µM in the experiment with HT29 colon; 3.46 µM with CAKI-1 renal; 2.54 µM in the experiment on MALME-3M melanoma; 6.52 µM in the experiment on T-47D breast; 3.44 µM in the experiment on ACHN renal; 3.35 µM in the experiment on COLO 205 colon. The GI50 with SF-268 CNS was 3.41 µM; in the experiment on KM12 colon, 5.04 µM; in the experiment on NCI-H522 lung it was 3 µM; in the experiment on BT-549 breast it was 2.54 µM. Moreover, the TGI in the experiment with HT29 colon is above 100 µM; in the experiment with CAKI-1 renal, 24.6 µM; in the experiment on MALME-3M melanoma, 15.6 µM; in the experiment with T-47D breast it was above 67.1 µM; with ACHN renal, 20.4 µM; in the experiment with COLO 205 colon, above 43.8 µM. Also, the TGI in the experiment on SF-268 CNS was above 38.9 µM; in the experiment on KM12 colon it was above 52.2 µM; in the experiment with NCI-H522 lung it was above 24.2 µM; in the experiment on BT-549 breast, 8.66 µM.
`Cn1cc(-c2nonc2-c2cn(C)c3ccccc23)c2ccccc21`: the GI50 in the experiment with HT29 colon is 0.519 µM; in the experiment on CAKI-1 renal it was 0.653 µM; in the experiment with MALME-3M melanoma, 1.06 µM; in the experiment with T-47D breast, 4.77 µM; in the experiment with ACHN renal, 1.47 µM; in the experiment with COLO 205 colon, 2.54 µM. The GI50 in the experiment with SF-268 CNS is 1.6 µM; in the experiment with KM12 colon, 0.661 µM; in the experiment on NCI-H522 lung, 0.402 µM; in the experiment on BT-549 breast it was 1.37 µM. The TGI in the experiment on HT29 colon, in the experiment with CAKI-1 renal, in the experiment with MALME-3M melanoma, with T-47D breast, in the experiment on ACHN renal and with COLO 205 colon was above 100 µM in each case. Further, the TGI in the experiment on SF-268 CNS, in the experiment on KM12 colon, in the experiment with NCI-H522 lung and in the experiment on BT-549 breast was above 100 µM each time.
`COc1ccc2cc(-c3c(-c4ccncc4)nc(-c4ccc(S(C)=O)cc4)n3C)ccc2c1` (centres undefined): the GI50 with HT29 colon was 9.06 µM; in the experiment with CAKI-1 renal, 19.4 µM; with MALME-3M melanoma it was 24.5 µM; with T-47D breast it was 7.92 µM; with ACHN renal, 20.2 µM; in the experiment with COLO 205 colon, 17 µM. The GI50 is above 25 µM with SF-268 CNS, above 24.1 µM with KM12 colon, above 18.5 µM with NCI-H522 lung and 21.1 µM with BT-549 breast. For the same molecule, the TGI in the experiment on HT29 colon is above 25 µM; with CAKI-1 renal, above 25 µM; in the experiment on MALME-3M melanoma, above 25 µM; in the experiment with T-47D breast it was 24.6 µM; in the experiment on ACHN renal, above 25 µM; with COLO 205 colon, above 25 µM. In addition, the TGI in the experiment on SF-268 CNS, with KM12 colon, in the experiment with NCI-H522 lung and with BT-549 breast was above 25 µM throughout.
On to `COc1ccc(/C=N/NC(=O)Cn2c(-c3ccc(S(C)(=O)=O)cc3)nc3cc(Cl)ccc32)cc1`, for which the GI50 in the experiment on HT29 colon is 0.689 µM; in the experiment on CAKI-1 renal it was 4.14 µM; in the experiment on MALME-3M melanoma it was 2.3 µM; with T-47D breast it was 3.22 µM; in the experiment with ACHN renal, 2.13 µM; in the experiment on COLO 205 colon it was 0.907 µM. For the same molecule, the GI50 in the experiment on SF-268 CNS was 2.76 µM; in the experiment on KM12 colon, 0.979 µM; with NCI-H522 lung it was 0.291 µM; in the experiment on BT-549 breast, 2.74 µM. In addition, the TGI with HT29 colon was 7.19 µM; in the experiment on CAKI-1 renal, above 50 µM; in the experiment on MALME-3M melanoma, 46.4 µM; in the experiment on T-47D breast, above 50 µM; with ACHN renal, above 50 µM; in the experiment with COLO 205 colon, 2.42 µM. For the same molecule, the TGI in the experiment with SF-268 CNS is above 50 µM; in the experiment with KM12 colon, above 50 µM; with NCI-H522 lung, 1.7 µM; in the experiment on BT-549 breast it was 48.5 µM.
